Data published in US20260184697A1, “EZH1/2 INHIBITOR, PREPARATION THEREOF, AND USE THEREOF IN ANTI-TUMOR THERAPY” (JIANGSU TASLY DIYI PHARMACEUTICAL CO., LTD., priority 2022, published 2026).
Where two headings read alike, the source gives them in different places.

Key:
[1] = tested on: Karpas-422 cells; experiment: Anti-proliferation by Cell Titer-Glo method (Test Example 3); type: cell-based; details: Homo sapiens
Method: Karpas-422 (Nanjing Kebai, CBP60629) cells were seeded in a 96-well plate (Corning, 3894) at 1,000 cells per well in growth medium (80% 1640 (Hyclone, SH30809.01)+20% FBS (Corning, 35-081-CV)), in a total of 100 μL, and then was added with 25 μL of 5-fold different concentrations of compounds diluted in growth medium. The cell growth group without compound addition was used as a positive control (maximum signal control), and the medium was used as a negative control (minimum signal control), while ensuring that the final contration of DMSO in each reaction well was 0.2%. Then the 96-well cell plate was placed in a cell culture incubator (37° C., 5% CO2) and incubated for 3 days. On the fourth day, the cell culture plate was taken out of the incubator, using a row gun to gently blow the cells up and down to mix, removing 62.5 μL of the cell suspension, adding 50 μL of growth medium and 12.5 μL of compounds of 5 times different concentrations, and then putting them in the cell incubator to incubate for 4 days. On the eighth day, the same method was used as the fourth day to treat the cells, then incubating in the cell culture incubator for 3 days. On the eleventh day, the Cell-Titer Glo (Promega, G7573) was used to detect cell viability, and a microplate reader was used to detect the signal value of luminescence.
The inhibition rate of different concentrations of compounds on cells was calculated as inhibition rate=[1−(compound signal value−negative control signal value)/(positive control signal value-negative control signal value)][…]. The IC50 of the compound on cell activity inhibition was calculated by GraphPad Prism 6 with log(inhibitor) vs. response-Variable slope model fitting. The fitting equation is: Y=Bottom+(Top−Bottom)/(1+10^((Log IC50−X)*Hill Slope)), wherein Y represents the inhibition rate, and X represents the known concentration of the compound after Log.

[2] = tested on: H3K27Me3 methylation in Karpas-422 cells; experiment: H3K27Me3 cell method, inhibition of H3K27Me3 methylation (Test Example 2); type: cell-based, human; details: Homo sapiens, KARPAS-422, 72 h
Method: Karpas-422 (Nanjing Kebai, CBP60629) cells were seeded in a 96-well plate (Corning, 3894) at 15,000 cells per well in culture medium (80% 1640 (Hyclone, SH30809.01)+20% FBS (Corning, 35-081-CV)), and then added with different concentrations of compounds for treatment. The cell growth group without adding compounds is used as a positive control (maximum signal control), and the medium is used as a negative control (minimum signal control), while ensuring that in each reaction well, the final concentration of DMSO was 0.2%. Compounds and cells were incubated for 3 days in a cell culture incubator (37° C., 5% CO2). The 96-well plate was taken out from the cell culture incubator and equilibrated to room temperature, and 25 ul of cell suspension was taken out into a 384-well plate. The CCK8 (Beiyuntian, C0040) detection reagent was added, incubated at 37° C. for 1 h, and […] was detected. The rest of the cells followed the procedure of the kit EPIgeneous H3K27Me3 cellular kit (Cisbio, 62KC3PAE) to carry out experiment, read HTRF signal with BMG PHERAStar. […] By GraphPad Prism 6 with log(inhibitor)vs.response-Variable slope model simulation, the IC50 of the compound on cell activity inhibition was calculated. The fitting equation is: Y=Bottom+(Top−Bottom)/(1+10^((Log IC50−X)*HillSlope)), wherein Y represents the inhibition rate, and X represents the known concentration of the compound after Log.

[3] = target: T1, EZH2/SUZ/EED (Homo sapiens, UniProt O75530+Q15022+Q15910); experiment: Inhibitory effect on EZH2 by the MTase-Glo method (Test Example 1); type: biochemical; details: EZH2/SUZ/EED 6.25 nM, H3 peptide 10 μM, SAM 3 μM, 30° C. 3 h, read-out: Test Example 1 WT EZH2 IC50
T1 construct: purchased BPS 51003
T1 sequence (Q15910 2-746 limits assumed): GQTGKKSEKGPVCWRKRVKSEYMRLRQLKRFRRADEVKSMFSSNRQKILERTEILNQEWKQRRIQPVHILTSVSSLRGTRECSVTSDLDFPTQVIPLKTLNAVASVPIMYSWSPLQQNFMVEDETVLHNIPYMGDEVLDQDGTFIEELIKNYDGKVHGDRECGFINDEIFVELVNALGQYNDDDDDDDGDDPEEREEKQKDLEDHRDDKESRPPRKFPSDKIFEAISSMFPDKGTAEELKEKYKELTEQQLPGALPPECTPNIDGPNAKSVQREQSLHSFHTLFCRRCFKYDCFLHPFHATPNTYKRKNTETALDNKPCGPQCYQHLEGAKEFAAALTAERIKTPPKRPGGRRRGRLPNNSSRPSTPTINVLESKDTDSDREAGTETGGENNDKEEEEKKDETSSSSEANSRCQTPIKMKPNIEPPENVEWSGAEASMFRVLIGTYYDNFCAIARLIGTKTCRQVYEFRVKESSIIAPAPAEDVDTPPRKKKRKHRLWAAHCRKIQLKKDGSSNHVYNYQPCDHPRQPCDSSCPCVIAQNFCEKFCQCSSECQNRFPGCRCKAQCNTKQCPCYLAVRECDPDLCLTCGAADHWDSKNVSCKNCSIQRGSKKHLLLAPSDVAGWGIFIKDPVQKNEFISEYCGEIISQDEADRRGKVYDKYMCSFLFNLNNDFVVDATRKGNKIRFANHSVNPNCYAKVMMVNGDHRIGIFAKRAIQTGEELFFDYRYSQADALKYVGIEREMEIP
T1 sequence (Q15022 2-739 partner limits assumed): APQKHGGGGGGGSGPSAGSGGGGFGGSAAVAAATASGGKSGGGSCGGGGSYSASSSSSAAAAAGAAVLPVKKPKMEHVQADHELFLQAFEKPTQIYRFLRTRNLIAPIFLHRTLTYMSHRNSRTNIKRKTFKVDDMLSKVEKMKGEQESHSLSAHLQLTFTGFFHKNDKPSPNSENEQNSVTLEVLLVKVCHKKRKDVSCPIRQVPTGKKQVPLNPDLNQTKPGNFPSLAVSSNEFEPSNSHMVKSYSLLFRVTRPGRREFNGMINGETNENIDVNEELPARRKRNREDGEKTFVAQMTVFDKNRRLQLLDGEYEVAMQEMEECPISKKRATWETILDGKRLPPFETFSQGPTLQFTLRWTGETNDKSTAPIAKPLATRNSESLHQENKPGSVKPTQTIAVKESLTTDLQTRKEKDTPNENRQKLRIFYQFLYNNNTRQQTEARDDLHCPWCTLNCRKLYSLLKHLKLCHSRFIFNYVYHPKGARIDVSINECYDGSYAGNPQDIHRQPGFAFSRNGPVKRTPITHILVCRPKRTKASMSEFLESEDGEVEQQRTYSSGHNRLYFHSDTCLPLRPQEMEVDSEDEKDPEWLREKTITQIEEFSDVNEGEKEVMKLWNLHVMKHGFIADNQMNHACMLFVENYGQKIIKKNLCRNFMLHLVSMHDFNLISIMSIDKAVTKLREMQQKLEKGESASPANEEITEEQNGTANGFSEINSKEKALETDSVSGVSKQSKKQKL
T1 sequence (O75530 2-441 partner limits assumed): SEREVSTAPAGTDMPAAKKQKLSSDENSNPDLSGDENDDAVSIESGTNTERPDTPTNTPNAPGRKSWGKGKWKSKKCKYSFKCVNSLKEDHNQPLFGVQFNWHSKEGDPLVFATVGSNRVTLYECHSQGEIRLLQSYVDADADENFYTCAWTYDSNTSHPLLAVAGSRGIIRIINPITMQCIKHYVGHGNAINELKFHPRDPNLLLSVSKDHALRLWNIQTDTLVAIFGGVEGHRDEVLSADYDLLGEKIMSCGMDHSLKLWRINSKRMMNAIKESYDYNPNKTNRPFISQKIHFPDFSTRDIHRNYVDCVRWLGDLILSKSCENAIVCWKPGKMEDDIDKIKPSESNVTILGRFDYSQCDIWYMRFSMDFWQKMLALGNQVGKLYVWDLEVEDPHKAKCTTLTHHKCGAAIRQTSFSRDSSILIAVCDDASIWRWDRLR
Summary of the method: (§1)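 EZH2/SUZ/EED (6.25 nM) or EZH1/SUZ/EED (25 nM) pre-incubated 15 min with compound in pH 7.6 Bicine buffer, 0.5% DMSO. Biotinylated H3(21-44) peptide 10 μM plus SAM 3 μM reacted 3 h at 30 °C; MTase-Glo luminescence normalized to controls, IC50 from variable-slope fit.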

[4] = target: T2, EZH1/SUZ/EED (Homo sapiens, UniProt O75530+Q15022+Q92800); experiment: Inhibitory effect on EZH1 by the MTase-Glo method (Test Example 1); type: biochemical; details: EZH1/SUZ/EED 25 nM, H3 peptide 10 μM, SAM 3 μM, 30° C. 3 h, read-out: Test Example 1 WT EZH1 IC50
T2 construct: purchased BPS 51006
T2 sequence (Q92800 2-747 limits assumed): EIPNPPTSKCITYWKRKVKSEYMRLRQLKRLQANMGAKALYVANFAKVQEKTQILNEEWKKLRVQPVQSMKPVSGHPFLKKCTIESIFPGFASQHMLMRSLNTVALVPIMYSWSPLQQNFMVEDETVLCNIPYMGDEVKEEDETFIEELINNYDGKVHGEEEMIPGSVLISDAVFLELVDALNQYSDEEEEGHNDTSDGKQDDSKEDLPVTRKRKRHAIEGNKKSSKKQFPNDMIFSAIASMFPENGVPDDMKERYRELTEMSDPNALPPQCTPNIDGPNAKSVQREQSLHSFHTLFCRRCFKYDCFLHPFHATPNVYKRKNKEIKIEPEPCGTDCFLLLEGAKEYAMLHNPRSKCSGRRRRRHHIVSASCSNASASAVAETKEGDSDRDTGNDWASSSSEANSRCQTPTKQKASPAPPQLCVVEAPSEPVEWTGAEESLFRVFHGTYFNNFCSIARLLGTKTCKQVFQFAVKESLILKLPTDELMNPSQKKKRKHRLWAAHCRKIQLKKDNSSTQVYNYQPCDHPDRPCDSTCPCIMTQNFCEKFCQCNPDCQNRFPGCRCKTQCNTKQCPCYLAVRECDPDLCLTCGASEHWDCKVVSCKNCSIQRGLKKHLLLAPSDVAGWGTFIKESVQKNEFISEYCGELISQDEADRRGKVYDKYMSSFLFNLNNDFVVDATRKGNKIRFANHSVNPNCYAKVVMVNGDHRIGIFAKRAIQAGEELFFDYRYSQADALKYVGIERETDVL
T2 sequence (Q15022 2-739 partner limits assumed): as the sequence (Q15022 2-739 partner limits assumed) above
T2 sequence (O75530 2-441 partner limits assumed): as the sequence (O75530 2-441 partner limits assumed) above
Summary of the method: as §1

[5] = Karpas-422 cells, Cell-Titer Glo on the eleventh day, read-out: Test Example 3 Karpas-422 cell anti-proliferation IC50
[6] = Karpas-422 cells, 3 days incubation, HTRF signal, read-out: Test Example 2 H3K27Me3 inhibition (Karpas-422) IC50
[7] = KARPAS-422, read-out: Test Example 3 Karpas-422 cell anti-proliferation IC50(nM)

Structure (SMILES) | IC50 [1, 5] | other results
Cc1c(C(=O)NCC2COC2)cc(Cl)c2c1O[C@@H]([C@H]1CC[C@@H](N(C)C)CC1)CO2 [Compound 167] | – | IC50 [1, 7]: > 1000 nM
Cc1c(C(=O)NCC2COC2)cc(Cl)c2c1O[C@@H]([C@H]1CC[C@H](N(C)C)CC1)CO2 [Compound 168] | – | IC50 [1, 7]: > 1000 nM
Cc1cc(Cl)c(CNC(=O)c2cc(Cl)c3c(c2C)O[C@@H]([C@H]2CC[C@@H](N(C)C)CC2)CO3)c(=O)[nH]1 [Compound 173] | 124 nM | –
Cc1cc(Cl)c(CNC(=O)c2cc(Cl)c3c(c2C)O[C@@H]([C@H]2CC[C@H](N(C)C)CC2)CO3)c(=O)[nH]1 [Compound 174] | 5.6 nM | IC50 [3]: 3.1 nM; IC50 [4]: 7.2 nM
COc1cc(C)[nH]c(=O)c1CNC(=O)c1cc(Cl)c2c(c1C)O[C@@H]([C@H]1CC[C@@H](OCCF)CC1)CO2 [Compound 179] | 36.6 nM | –
COc1cc(C)[nH]c(=O)c1CNC(=O)c1cc(Cl)c2c(c1C)O[C@@H]([C@H]1CC[C@H](OCCF)CC1)CO2 [Compound 180] | 10.8 nM | –
Cc1cc(C)c(CNC(=O)c2cc(Cl)c3c(c2C)CC(C)(C2CCC(N(C)C)CC2)O3)c(=O)[nH]1 (stereo not shown) [Compound 181] | – | IC50 [3]: 30.4 nM; IC50 ([2]; read-out: Test Example 2 H3K27Me3 inhibition (Karpas-422) IC50(nM)): 410 nM; IC50 [4]: 1350 nM

More lines, main results first:

IC50 [1, 5] | Structure (SMILES) | other results
31.5 nM | COc1cc(C)[nH]c(=O)c1CNC(=O)c1cc(Cl)c2c(c1C)O[C@@H]([C@H]1CC[C@H](N3CC[C@H](OC)C3)CC1)CO2 [Compound 120] | –
35.8 nM | COc1cc(C)[nH]c(=O)c1CNC(=O)c1cc(Cl)c2c(c1C)O[C@@H]([C@H]1CC[C@@H](N3CC[C@@H](OC)C3)CC1)CO2 [Compound 121] | IC50 [2, 6]: 92.3 nM
472 nM | COc1cc(C)[nH]c(=O)c1CNC(=O)c1cc(Cl)c2c(c1C)O[C@@H]([C@H]1CC[C@H](N3CC[C@@H](OC)C3)CC1)CO2 [Compound 122] | –
1.7 nM | CSc1cc(C)[nH]c(=O)c1CNC(=O)c1cc(C#N)c2c(c1C)O[C@@H]([C@H]1CC[C@@H](N3CC(OC(F)F)C3)CC1)CO2 [Compound 163] | IC50 [3]: 7.1 nM; IC50 [2, 6]: 1.9 nM
1.2 nM | C#Cc1cc(C(=O)NCc2c(SC)cc(C)[nH]c2=O)c(C)c2c1OC[C@H]([C@H]1CC[C@@H](N3CC(OC)C3)CC1)O2 [Compound 165] | IC50 [2, 6]: 1.4 nM
46.8 nM | COC1CN([C@H]2CC[C@H]([C@H]3COc4c(F)cc(C(=O)NCc5c(SC)cc(C)[nH]c5=O)c(C)c4O3)CC2)C1 [Compound 170] | –
> 1000 nM | COC1CN([C@H]2CC[C@H]([C@@H]3COc4c(F)cc(C(=O)NCc5c(SC)cc(C)[nH]c5=O)c(C)c4O3)CC2)C1 [Compound 171] | IC50 [2, 6]: > 1000 nM
373 nM | COC1CN([C@H]2CC[C@@H]([C@@H]3COc4c(F)cc(C(=O)NCc5c(SC)cc(C)[nH]c5=O)c(C)c4O3)CC2)C1 [Compound 172] | –
197 nM | COC1CN([C@H]2CC[C@H]([C@H]3COc4c(Cl)cc(C(=O)NCc5c(Cl)cc(C)[nH]c5=O)c(C)c4O3)CC2)C1 [Compound 176] | –
